In publication PMC6214108, “Synthesis and In Vitro Antitumor Activity of Novel Bivalent β-Carboline-3-carboxylic Acid Derivatives with DNA as a Potential Target” (International Journal of Molecular Sciences, 2018):

What was measured:
Format in all cases: cell-based
A549 cells [1] = assay: Cell apoptosis assay, Annexin V-FITC/PI dual staining, flow cytometry; details: 48 h; for Percentage of Cell Apoptosis (%) Normal Living Cell: lower left quadrant in Figure 3; for Percentage of Cell Apoptosis (%) Early Apoptosis: lower right quadrant in Figure 3
Description: The cell apoptosis was evaluated using Annexin V-FITC/PI dual staining (Beyotime, China). A549 cells (1 × 10^6 cells per well) seeded into 6-well plates (JET, Guangzhou, China) were incubated with DMEM containing various concentrations (2, 4, and 8 μM) of β-carbolines (4B, 6i, 4D, and 6u) for 48 h at 37 °C and 5% CO2. The cells in the supernatant and adherent were collected and washed with PBS, and then the cells were stained with Annexin V-FITC and PI for 20 min at r.t. The samples were analyzed using flow cytometry (Becton Dickinson, San Jose, CA, USA).
Figure 3 The cell apoptosis was detected by flow cytometry using Annexin V-FITC/PI dual staining. A549 cells were treated with 4B, 6i, 4D, and 6u at 2, 4, and 8 μM for 48 h, and then stained with Annexin V-FITC and PI for 15 min at 37 °C. The proportions of the living cells, the early apoptosis cells, and the late apoptotic cells were analyzed by FCS Express 5.0. TEXT PRINTED IN THE PICTURE: 4B: 9.00% (2 μM); 11.89% (2 μM); 75.93% (2 μM); 3.18% (2 μM); 8.92% (4 μM); 27.14% (4 μM); 48.59% (4 μM); 15.35% (4 μM); 3.89% (8 μM); 65.76% (8 μM); 21.95% (8 μM); 8.40% (8 μM) | 6i: 0.77% (2 μM); 20.26% (2 μM); 72.12% (2 μM); 6.85% (2 μM); 9.33% (4 μM); 33.08% (4 μM); 44.94% (4 μM); 12.65% (4 μM); 23.51% (8 μM); 59.73% (8 μM); 12.52% (8 μM); 4.24% (8 μM) | Control: 0.36%; 7.08%; 88.34%; 4.22% | 4D: 2.62% (2 μM); 16.16% (2 μM); 73.94% (2 μM); 7.27% (2 μM); 10.30% (4 μM); 34.96% (4 μM); 47.93% (4 μM); 6.80% (4 μM); 22.79% (8 μM); 54.30% (8 μM); 17.63% (8 μM); 5.28% (8 μM) | 6u: 0.17% (2 μM); 21.64% (2 μM); 66.05% (2 μM); 12.14% (2 μM); 6.92% (4 μM); 54.01% (4 μM); 32.53% (4 μM); 6.54% (4 μM); 2.79% (8 μM); 80.73% (8 μM); 8.83% (8 μM); 7.65% (8 μM) DOUBTS OF THE COPYIST ABOUT THIS PICTURE: The quadrant percentages carry no printed measure. For each plot they are listed in the order upper left, upper right, lower left, lower right. / All quadrant percentages are printed very small and blurred, so 3, 5, 6, 8 and 9 cannot be told apart with certainty in any of them.

A549 cells [2] = assay: Cell cycle assay, PI single staining, flow cytometry; details: 48 h
Description: The cell cycle was determined by PI single staining. A549 cells (1 × 10^6 cells per well) seeded into 6-well plates (JET, Guangzhou, China) were incubated with DMEM containing various concentrations (2, 4, and 8 μM) of β-carbolines (4B, 6i, 4D, and 6u) for 48 h at 37 °C and 5% CO2. The cells were harvested, washed with pre-cooled PBS (4 °C), and fixed with pre-cooled 90% ethanol (4 °C). Then, the cells were incubated with 20 μL RNAse (30 μg/mL) and 20 μL PI (50 μg/mL) (Sigma Aldrich, Saint Louis, MO, USA) for 30 min at 37 °C. The samples were analyzed using flow cytometry (BD FACSCalibur, San Jose, CA, USA).
Figure 2 The cell cycle was detected by flow cytometry using PI single staining. A549 cells were treated with 4B, 6i, 4D, and 6u at 2, 4, and 8 μM for 48 h, and then stained with PI for 30 min at 37 °C. The proportions of cells containing different DNA content were analyzed by FCS Express 5.0 (De Novo Software, Thornhill, Canada).

[3] = test system: SMMC-7721 (liver carcinoma) cell line; assay: MTT cytotoxicity assay, SMMC-7721; details: Homo sapiens, 48 h, mean of three independent experiments, read-out: IC50 (μM) Mean ± SD, SMMC-7721
Description: All cell lines (A549, SGC-7901, Hela, SMMC-7721, and MCF-7) were purchased from the American Type Culture Collection (Manassas, VA, USA), and were cultured in Dulbecco’s modified Eagle’s medium (DMEM, HycloneLaboratories Inc., Logan, Utah, USA) supplemented with 10% fetal bovine serum (FBS, Gibco&Invitrogen, Carlsbad, CA, USA) at 37 °C and 5% CO2.
The cytotoxic activities of β-carboline-3-carboxylic acid derivatives were investigated by the MTT method, as previously described. Cells (1 × 10^4 cells per well) seeded into 96-well plates (JET, Guangzhou, China) were incubated with DMEM containing various concentrations (2.5, 5, 10, 20, 40, and 80 μM) of β-carbolines (4A, 4B, 4C, 4D, 6a-6f, 6g-6l, 6m-6r, and 6s-6x) for 48 h at 37 °C and 5% CO2. Then, 10 µL of 5 mg/mL MTT reagent dissolved in PBS (Phosphate buffered saline) was added per well, and plates were incubated at 37 °C for 4 h. The medium was carefully removed and 100 µL dimethyl sulfoxide (DMSO) was added to dissolve the formazan crystals. The absorbance was measured at 490 nm with a microplate reader (ThermoFisher Scientific Inc., Waltham, MA, USA). The β-carbolines were dissolved in DMSO as stock solutions (10 mM) at −20 °C, and diluted in the final experimental solution using DMEM before use. A549 (lung carcinoma), SGC-7901 (gastric carcinoma), Hela (cervical carcinoma), SMMC-7721 (liver carcinoma), and MCF-7 (breast carcinoma) cell lines were used for the antitumor activity screening. The IC50 values were the mean values of three independent experiments.

| Structure (SMILES) | Percentage of Cell Apoptosis (%) Late Apoptosis and Necrosis (A549 cells [1]; A549, 2 μM) [%] | Percentage of Cell Apoptosis (%) Normal Living Cell (A549 cells [1]; A549, 2 μM) [%] | Percentage of Cell Apoptosis (%) Early Apoptosis (A549 cells [1]; A549, 2 μM) [%] | Percentage of Cell Apoptosis (%) Late Apoptosis and Necrosis (A549 cells [1]; A549, 4 μM) [%] | Percentage of Cell Apoptosis (%) Normal Living Cell (A549 cells [1]; A549, 4 μM) [%] | Percentage of Cell Apoptosis (%) Early Apoptosis (A549 cells [1]; A549, 4 μM) [%] | Percentage of Cell Apoptosis (%) Late Apoptosis and Necrosis (A549 cells [1]; A549, 8 μM) [%] | Percentage of Cell Apoptosis (%) Normal Living Cell (A549 cells [1]; A549, 8 μM) [%] | Percentage of Cell Apoptosis (%) Early Apoptosis (A549 cells [1]; A549, 8 μM) [%] | Percentage of Cell Cycles (%) G1 (A549 cells [2]; A549, 2 μM) [%] | Percentage of Cell Cycles (%) G2/M (A549 cells [2]; A549, 2 μM) [%] | Percentage of Cell Cycles (%) S (A549 cells [2]; A549, 2 μM) [%] | Percentage of Cell Cycles (%) SubG1 (A549 cells [2]; A549, 2 μM) [%] | Percentage of Cell Cycles (%) G1 (A549 cells [2]; A549, 4 μM) [%] | Percentage of Cell Cycles (%) G2/M (A549 cells [2]; A549, 4 μM) [%] | Percentage of Cell Cycles (%) S (A549 cells [2]; A549, 4 μM) [%] | Percentage of Cell Cycles (%) SubG1 (A549 cells [2]; A549, 4 μM) [%] | Percentage of Cell Cycles (%) G1 (A549 cells [2]; A549, 8 μM) [%] | Percentage of Cell Cycles (%) G2/M (A549 cells [2]; A549, 8 μM) [%] | Percentage of Cell Cycles (%) S (A549 cells [2]; A549, 8 μM) [%] | further results |
| --- | --- | --- | --- | --- | --- | --- | --- | --- | --- | --- | --- | --- | --- | --- | --- | --- | --- | --- | --- | --- | --- |
| O=C(OCCCCCOC(=O)c1cc2c3ccccc3n(Cc3ccccc3F)c2cn1)c1cc2c3ccccc3n(Cc3ccccc3F)c2cn1 [Compound 6u] | 21.81 | 66.05 | 12.14 | 60.93 | 32.53 | 6.54 | 83.52 | 8.83 | 7.65 | 56.24 | 19.97 | 23.79 | 6.84 | 47.06 | 40.34 | 12.60 | 46.25 | 81.62 | 18.30 | 0.08 | Percentage of Cell Cycles (%) SubG1 (A549 cells [2]; A549, 8 μM): 44.92%; IC50 [3]: 16.68 ± 0.11 µM |
| Cc1ccccc1Cn1c2ccccc2c2cc(C(=O)OCCCCCOC(=O)c3cc4c5ccccc5n(Cc5ccccc5C)c4cn3)ncc21 [Compound 6i] | 21.03 | 72.12 | 6.85 | 42.41 | 44.94 | 12.65 | 83.24 | 12.52 | 4.24 | 57.38 | 10.54 | 32.08 | 6.86 | 45.19 | 42.40 | 12.41 | 26.33 | 46.64 | 0.06 | 53.30 | Percentage of Cell Cycles (%) SubG1 (A549 cells [2]; A549, 8 μM): 21.32%; IC50 [3]: 14.2 ± 0.28 µM |
| COC(=O)c1cc2c3ccccc3n(Cc3ccccc3C)c2cn1 [Compound 4B] | 20.89 | 75.93 | 3.18 | 36.06 | 48.59 | 15.35 | 69.65 | 21.95 | 8.40 | 59.38 | 15.46 | 25.16 | 6.56 | 43.06 | 46.96 | 9.98 | 10.49 | 52.09 | 2.1 | 45.81 | Percentage of Cell Cycles (%) SubG1 (A549 cells [2]; A549, 8 μM): 4.15%; IC50 [3]: > 80 µM |
| COC(=O)c1cc2c3ccccc3n(Cc3ccccc3F)c2cn1 [Compound 4D] | 18.78 | 73.94 | 7.27 | 45.26 | 47.93 | 6.80 | 77.09 | 17.63 | 5.28 | 56.89 | 18.94 | 24.17 | 6.41 | 47.21 | 35.46 | 17.33 | 39.03 | 88.01 | 0.3 | 11.69 | Percentage of Cell Cycles (%) SubG1 (A549 cells [2]; A549, 8 μM): 46.29%; IC50 [3]: 35.6 ± 1.33 µM |
